Measured values reported in ChEMBL document CHEMBL5226376, “A Streptomyces Cytochrome P450 Enzyme Catalyzes Regiospecific C2-Guaninylation for the Synthesis of Diverse Guanitrypmycin Analogs” (J Nat Prod, 2023).
Activity calls are given as the source filed them.

What was measured:
Assay type in all cases: functional, organism-based
[1] = test system: Niallia circulans; assay: Antibacterial activity against Bacillus circulans NRRLB-14032 assessed as inhibition of bacterial growth incubated for overnight by disk diffusion method
[2] = test system: Bacillus subtilis; assay: Antibacterial activity against Bacillus subtilis BSB01 assessed as inhibition of bacterial growth incubated for overnight by disk diffusion method
[3] = test system: Pseudomonas aeruginosa; assay: Antibacterial activity against Pseudomonas aeruginosa ATCC 27853 assessed as inhibition of bacterial growth incubated for overnight by disk diffusion method
[4] = test system: Staphylococcus delphini; assay: Antibacterial activity against Staphylococcus delphini DSM20771 assessed as inhibition of bacterial growth incubated for overnight by disk diffusion method
[5] = test system: Klebsiella pneumoniae; assay: Antibacterial activity against Klebsiella pneumoniae DSM26371 assessed as inhibition of bacterial growth incubated for overnight by disk diffusion method
[6] = test system: Niallia circulans; assay: Antibacterial activity against Bacillus circulans NRRLNRS-1108 assessed as inhibition of bacterial growth incubated for overnight by disk diffusion method
[7] = test system: Bacillus subtilis; assay: Antibacterial activity against Bacillus subtilis NCIB3610 assessed as inhibition of bacterial growth incubated for overnight by disk diffusion method
[8] = test system: Escherichia coli; assay: Antibacterial activity against Escherichia coli ATCC 25922 assessed as inhibition of bacterial growth incubated for overnight by disk diffusion method
[9] = test system: Enterococcus faecalis; assay: Antibacterial activity against Enterococcus faecalis DSM2570 assessed as inhibition of bacterial growth incubated for overnight by disk diffusion method
[10] = test system: Staphylococcus aureus; assay: Antibacterial activity against Staphylococcus aureus ATCC 29213 assessed as inhibition of bacterial growth incubated for overnight by disk diffusion method
[11] = test system: Escherichia coli; assay: Antibacterial activity against Escherichia coli DH5alpha assessed as inhibition of bacterial growth incubated for overnight by disk diffusion method
[12] = test system: Niallia circulans; assay: Antibacterial activity against Bacillus circulans NRRLB-380 assessed as inhibition of bacterial growth incubated for overnight by disk diffusion method

Measured: Activity

Nc1nc2[nH]c(-c3[nH]c4ccccc4c3C[C@@H]3NC(=O)[C@H](Cc4ccc(O)cc4)NC3=O)nc2c(=O)[nH]1
inactive: all assays above

Nc1nc2[nH]c(-c3[nH]c4ccccc4c3C[C@@H]3NC(=O)[C@H](Cc4ccccc4)NC3=O)nc2c(=O)[nH]1
inactive: all assays above

Nc1nc2[nH]c(-c3[nH]c4ccccc4c3C[C@@H]3NC(=O)[C@H](Cc4c[nH]c5ccccc45)NC3=O)nc2c(=O)[nH]1
inactive: all assays above

Nc1nc2[nH]c(-c3[nH]c4ccccc4c3C[C@@H]3NC(=O)/C(=C/c4ccccc4)NC3=O)nc2c(=O)[nH]1
inactive: all assays above

Nc1nc2[nH]c(-c3[nH]c4ccccc4c3C[C@@H]3NC(=O)/C(=C/c4ccc(O)cc4)NC3=O)nc2c(=O)[nH]1
inactive: all assays above
